# Data from the supplement of paper PMC10307832.
# How the values were obtained:
# Experiment in all cases: relative viability (nuclei count vs DMSO), 5 days (fraction); higher = more cells survive
# [1] = compound: CC1=C(CC(=O)O)c2cc(F)ccc2/C1=C\c1ccc([S+](C)[O-])cc1 [Sulindac] + CC(C)C[C@H](NC(=O)[C@H](Cc1ccccc1)NC(=O)c1cnccn1)B(O)O [Bortezomib] (partner 0.002 µM)
# Outline: (§1)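 Five library-drug doses in √10 steps were combined with a fixed anchor-drug dose, or a single drug was given alone, by pin tool to lung cancer cell lines in 1536-well plates the day after seeding. Nuclei were stained and counted after 5 days. Relative viability is the nuclei count in treated wells over that in vehicle wells, taken as the median of duplicate plates.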
# [2] = compound: CC1=C(CC(=O)O)c2cc(F)ccc2/C1=C\c1ccc([S+](C)[O-])cc1 [Sulindac] + CS(=O)(=O)N1CCN(Cc2cc3nc(-c4cccc5[nH]ncc45)nc(N4CCOCC4)c3s2)CC1 [Pictilisib] (partner 1 µM)
# Outline: as §1
# [3] = compound: O=c1[nH]cc(F)c(=O)[nH]1 [5-Fluorouracil] + CC(=O)Nc1cccc(-n2c(=O)n(C3CC3)c(=O)c3c(Nc4ccc(I)cc4F)n(C)c(=O)c(C)c32)c1 [Trametinib] (partner 0.02 µM)
# Outline: as §1
# [4] = compound: CC1=C(CC(=O)O)c2cc(F)ccc2/C1=C\c1ccc([S+](C)[O-])cc1 [Sulindac] + CCNC(=O)c1noc(-c2cc(C(C)C)c(O)cc2O)c1-c1ccc(CN2CCOCC2)cc1 [Luminespib] (partner 0.01 µM)
# Outline: as §1
Cell Line,relative viability ([1]; first compound 0.08 µM),relative viability ([1]; first compound 0.253 µM),relative viability ([1]; first compound 0.8 µM),relative viability ([1]; first compound 2.53 µM),relative viability ([1]; first compound 8 µM),relative viability ([2]; first compound 0.08 µM),relative viability ([2]; first compound 0.253 µM),relative viability ([2]; first compound 0.8 µM),relative viability ([2]; first compound 2.53 µM),relative viability ([2]; first compound 8 µM),relative viability ([3]; first compound 0.02 µM),relative viability ([3]; first compound 0.2 µM),relative viability ([3]; first compound 0.6325 µM),relative viability ([3]; first compound 2 µM),relative viability ([4]; first compound 0.08 µM),relative viability ([4]; first compound 0.253 µM),relative viability ([4]; first compound 0.8 µM),relative viability ([4]; first compound 2.53 µM),relative viability ([4]; first compound 8 µM)
HOP-62,0.913,1.03,1.02,0.809,0.564,1.01,0.864,0.831,0.758,0.978,0.362,0.417,0.392,0.357,1.34,0.974,0.708,0.977,0.942
NCI-H727,0.822,0.884,0.665,0.742,0.912,0.46,0.252,0.381,0.404,0.349,0.361,0.384,0.363,0.389,0.223,0.338,–,0.299,0.443
BEN,0.829,0.889,0.714,0.748,0.947,0.599,0.56,0.443,0.673,0.667,0.934,0.93,0.946,0.938,0.23,0.373,0.597,0.472,0.326
NCI-H460,–,1.19,–,1.12,1.67,0.366,0.359,0.219,0.381,0.394,0.219,0.144,0.0819,0.0387,0.0451,0.0347,0.0378,0.0255,0.0267
ChaGo-K-1,1.07,1.1,0.885,0.882,1.35,0.808,0.645,0.74,0.647,1.45,0.934,0.796,0.691,0.499,0.526,0.584,0.637,0.587,0.405
NCI-H1792,1.24,0.995,–,0.987,1.24,0.286,0.294,–,0.231,0.313,0.367,0.278,0.172,0.167,0.409,0.475,–,0.384,0.627
NCI-H2085,0.976,1.06,0.917,1.12,1.11,0.459,0.415,0.433,0.377,0.447,0.412,0.607,0.563,0.563,0.39,0.414,0.426,0.428,0.36
LC-2-ad,1.31,0.992,0.969,0.97,1.12,0.63,0.533,0.34,0.416,0.445,1.02,0.894,0.552,0.349,1.03,0.947,1.07,0.994,1.18
201T,1.12,1.1,1.06,1.12,1.08,0.737,0.665,0.627,0.678,0.698,0.715,0.563,0.305,0.284,1.13,1.09,1.07,1.04,1.09
NCI-H2023,1.13,1.04,0.666,1,1.07,0.27,0.213,0.249,0.222,0.234,0.472,0.21,0.133,0.0877,0.923,0.845,–,0.649,0.92
NCI-H23,0.991,1.26,0.58,1.25,1.27,0.423,0.525,0.387,0.536,0.517,0.483,0.331,0.285,0.211,0.174,–,–,0.234,0.243
LU99A,1.22,1.09,1.11,0.91,1.19,0.33,0.31,0.301,0.267,0.344,0.655,0.559,0.374,0.268,0.164,0.315,0.196,0.243,0.263
NCI-H1437,0.553,0.767,0.293,0.418,0.688,0.417,0.504,0.405,0.386,0.489,0.364,0.247,0.22,0.18,1.33,1.1,0.912,1.25,1.25
EKVX,1,0.999,0.859,1.04,1.05,0.409,0.487,0.381,0.475,0.516,0.326,–,0.187,0.148,0.755,0.792,0.768,0.887,0.897
NCI-H647,1.02,1.13,0.667,0.936,1.05,0.49,0.422,0.435,0.419,0.735,0.444,0.479,0.406,0.393,0.187,0.125,0.169,0.122,0.134
NCI-H1734,1.01,0.937,0.731,0.914,1.25,0.466,0.498,0.413,0.48,0.515,0.709,0.682,0.584,0.415,0.146,0.186,–,0.203,0.23
LCLC-97TM1,0.861,0.946,–,0.788,0.806,0.198,0.214,0.18,–,0.187,0.181,0.203,0.209,0.188,0.978,0.847,0.673,0.644,0.876
NCI-H322M,1.22,1.33,1.19,1.3,1.38,0.579,0.508,0.419,0.545,0.539,0.532,0.664,0.463,0.456,0.887,0.819,0.644,0.848,0.881
RERF-LC-KJ,1.23,1.08,0.92,1.07,1.25,0.57,0.626,–,0.473,0.579,0.949,0.811,0.838,0.7,1.06,1.47,1.18,1.23,1.64
EPLC-272H,1.05,–,0.603,1.12,0.813,0.293,–,0.252,0.284,0.361,0.263,0.262,0.242,0.198,0.211,0.167,–,0.262,0.255
A-427,0.899,0.976,1.08,0.965,1.17,0.84,0.507,0.625,0.805,0.717,0.747,0.773,0.58,0.382,1.05,0.835,1.06,0.781,1.07
